Source: the supplement of paper PMC10307832

Columns and labels:
Assay in all cases: relative viability (nuclei count vs DMSO), 5 days (fraction); higher = more cells survive
Ibrutinib + Alpelisib = compound: C=CC(=O)N1CCC[C@@H](n2nc(-c3ccc(Oc4ccccc4)cc3)c3c(N)ncnc32)C1 [Ibrutinib] + Cc1nc(NC(=O)N2CCC[C@H]2C(N)=O)sc1-c1ccnc(C(C)(C)C(F)(F)F)c1 [Alpelisib] (partner 2 µM)
Summary of the method: (§1)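 Lung cancer cell lines were seeded in 1536-well plates and dosed by pin tool the next day, with either a single drug or a fixed anchor-drug dose combined with five library-drug doses (not always all listed) spaced in √10 steps. Five days later, one step fixed the cells and stained their nuclei (final 0.05% Triton X-100, 1% formaldehyde, 1 ug/ml Hoechst), and nuclei were counted on 4× images. Relative viability is the nuclei count in treated wells divided by the count in vehicle wells, and each value is the median of duplicate plates.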

BMX-IN-1 + Luminespib = compound: C=CC(=O)Nc1cc(-n2c(=O)ccc3cnc4ccc(-c5ccc(NS(C)(=O)=O)cc5)cc4c32)ccc1C [BMX-IN-1] + CCNC(=O)c1noc(-c2cc(C(C)C)c(O)cc2O)c1-c1ccc(CN2CCOCC2)cc1 [Luminespib] (partner 0.01 µM)
Summary of the method: as §1

PAC-1 + AZD7762 = compound: C=CCc1cccc(/C=N/NC(=O)CN2CCN(Cc3ccccc3)CC2)c1O [PAC-1] + NC(=O)Nc1cc(-c2cccc(F)c2)sc1C(=O)N[C@H]1CCCNC1 [AZD7762] (partner 0.2 µM)
Summary of the method: as §1

BMX-IN-1 + Pemetrexed = compound: C=CC(=O)Nc1cc(-n2c(=O)ccc3cnc4ccc(-c5ccc(NS(C)(=O)=O)cc5)cc4c32)ccc1C [BMX-IN-1] + Nc1nc2[nH]cc(CCc3ccc(C(=O)N[C@@H](CCC(=O)O)C(=O)O)cc3)c2c(=O)[nH]1 [Pemetrexed] (partner 0.2 µM)
Summary of the method: as §1

| Cell Line | relative viability (Ibrutinib + Alpelisib; first compound 0.01581 µM) | relative viability (Ibrutinib + Alpelisib; first compound 0.05 µM) | relative viability (Ibrutinib + Alpelisib; first compound 0.1581 µM) | relative viability (Ibrutinib + Alpelisib; first compound 0.5 µM) | relative viability (BMX-IN-1 + Luminespib; first compound 0.02 µM) | relative viability (BMX-IN-1 + Luminespib; first compound 0.2 µM) | relative viability (BMX-IN-1 + Luminespib; first compound 0.6325 µM) | relative viability (BMX-IN-1 + Luminespib; first compound 2 µM) | relative viability (PAC-1 + AZD7762; first compound 0.02 µM) | relative viability (PAC-1 + AZD7762; first compound 0.06325 µM) | relative viability (PAC-1 + AZD7762; first compound 0.2 µM) | relative viability (PAC-1 + AZD7762; first compound 2 µM) | relative viability (BMX-IN-1 + Pemetrexed; first compound 0.02 µM) | relative viability (BMX-IN-1 + Pemetrexed; first compound 0.2 µM) | relative viability (BMX-IN-1 + Pemetrexed; first compound 0.6325 µM) | relative viability (BMX-IN-1 + Pemetrexed; first compound 2 µM) | relative viability (Ibrutinib + Alpelisib; first compound 0.005 µM) |
| --- | --- | --- | --- | --- | --- | --- | --- | --- | --- | --- | --- | --- | --- | --- | --- | --- | --- |
| 201T | 0.97 | 1.03 | 1 | 0.938 | 1.07 | 1.1 | 1.09 | 0.98 | 0.625 | 0.59 | 0.571 | 0.567 | 0.326 | 0.342 | 0.339 | 0.351 | – |
| A549 | 0.681 | 0.634 | 0.854 | 0.761 | – | – | – | – | – | – | – | – | – | – | – | – | 0.624 |
| A-427 | 1.08 | 1.11 | 1.09 | 1.14 | 1.13 | 0.844 | 1.01 | 1.04 | 0.774 | 0.734 | 0.713 | 0.702 | 1.01 | 1.05 | 1.11 | 0.992 | 1.06 |
| ABC-1 | 0.813 | 1.05 | 1.17 | 0.983 | 0.586 | 0.571 | 0.359 | 0.322 | 0.952 | 0.871 | 0.628 | 0.975 | – | – | – | – | 0.922 |
| BEN | 0.906 | 0.944 | 0.891 | 1.06 | 0.417 | 0.332 | 0.328 | 0.364 | 0.712 | 0.626 | 0.618 | 0.828 | 0.701 | 0.768 | 0.866 | 0.708 | 0.785 |
| CAL-12T | 0.831 | 1.14 | 1.18 | 0.698 | 0.578 | 0.483 | 0.392 | 0.712 | 0.579 | 0.621 | 0.626 | 0.6 | 1.27 | 1.36 | 1.37 | 1.15 | – |
| COR-L23 | 0.702 | 0.73 | 0.775 | 0.865 | 0.807 | 0.782 | 1.07 | 0.548 | – | – | – | – | 0.188 | 0.204 | 0.206 | 0.165 | 0.947 |
| COR-L 105 | 0.762 | 0.866 | 1.11 | 0.43 | 0.753 | 0.693 | 0.928 | 0.706 | – | – | – | – | 1.2 | 1.07 | 1.3 | 1.04 | 0.899 |
| Calu-6 | 0.993 | – | 1.06 | 0.93 | – | – | – | – | – | – | – | – | – | – | – | – | 1.02 |
| ChaGo-K-1 | – | – | – | – | 0.665 | 0.708 | 0.536 | 0.778 | 0.858 | 0.907 | 0.861 | 0.9 | 0.238 | 0.305 | 0.25 | 0.39 | – |
| EBC-1 | 0.856 | 0.79 | 0.936 | 0.895 | – | – | – | – | – | – | – | – | – | – | – | – | 0.852 |
| EKVX | 0.776 | 0.829 | 0.799 | 0.562 | 0.945 | 0.835 | 0.85 | 0.857 | 0.638 | 0.75 | 0.664 | 0.62 | 0.56 | 0.448 | 0.464 | 0.452 | – |
| EMC-BAC-2 | 0.697 | 0.75 | 0.741 | 0.547 | 1.36 | 1.33 | 1.4 | 1.1 | 1.13 | 1.24 | 1.19 | 1.15 | 0.448 | 0.486 | 0.466 | 0.44 | 0.728 |
